In patent US12022830B2, “Formulations of metal and ascorbic acid complexes, their obtaining and use” (INTERMAG SP. Z O.O., priority 2017, dated 2024):

How the values were obtained:
[1] = system: celery (Apium graveolens); test: Vanadyl ascorbate in cultivation of celery; format: in vivo; details: for root mass increase compared to plants from the control object: celery; for Chlorophyll / Dry mass of leaves / Dry mass of root / Flavonoids / Mass of celery leaves / Mass of celery root: sprayed three times
Protocol: Cultivation of celery (Apium graveolens) was carried out in a plastic tunnel in pots with a capacity of 3 l filled with peat substrate. Vanadyl ascorbate at a 1:2 molar ratio of V:Asc (VO(C6H7O6)2.2H2O) was applied three times during the entire cultivation in BBCH phases: 4-16 (4-6 leaves), 19-40 (10 and more leaves) and 42-44 (root development) in the form of fine-droplet spraying. Two vanadium doses of 5 g V/ha (0.001%) and 10 g V/ha (0.002%) were used. The experiment was performed in a random block system, combinations were drawn in 4 blocks. There were 20 celery plants for each combination.
The mass of celery leaves has been increased both by the application of vanadium in the amount of 5 g and 10 g/ha. […] For a smaller dose, root mass has increased by 23%, while for a dose of 10 g V/ha by 11% compared to plants from the control object. A dose of 5 g V/ha positively influenced the quality parameters of celery, the dry mass of leaves, the content of chlorophyll and flavonoids have increased. However, a dose of 10 g V/ha contributed to the increase in dry mass of leaves and to the increase in content of flavonoids. The results of this experiment indicate a biostimulatory effect of low doses of vanadium on the utility yield increase of vegetable plants and its qualitative parameters.

[2] = system: Radish (Raphanus sativus) of Ronda type; test: Vanadyl ascorbate in cultivation of radish; format: in vivo; details: foliar twice, 0.004% V, total 20 g V/ha
Protocol: Radish (Raphanus sativus) of Ronda type was cultivated in a plastic tunnel in a peat substrate. Vanadyl ascorbate at a 1:2 molar ratio of V:Asc (VO(C6H7O6)2.2H2O) was applied in the form of foliar spraying twice during the entire cultivation, vanadium concentration in the working liquid was 0.004% V. In two applications, the total vanadium dose per hectare was 20 g V/ha. The experiment was performed in a random block system, combinations were drawn in 4 blocks. There were 20 plants for each combination.
Foliar application of vanadyl ascorbate VO(C6H7O6)2.2H2O has increased the mass of radish root by 12% compared to the control plants. […] Furthermore, in vanadium treated plants, the content of flavonoids responsible for protecting plant cells from oxidative stress, which is caused, among others, by through drought, has increased almost twice as compared to the control.

[3] = system: iceberg lettuce; test: Vanadyl ascorbate in cultivation of iceberg lettuce, head mass, chlorophyll, flavonoids, nutrients; format: in vivo, Lactuca sativa; details: foliar twice, total 10 g V/ha
From the text: Iceberg cabbage lettuce (Lactuca sativa) of Rubette type was cultivated in a plastic tunnel in pots with a capacity of 3 l filled with a peat substrate. Titanil ascorbate at a 1:2 molar ratio of Ti: Asc (TiO(C6H7O6)2.2H2O) and liquid titanil ascorbate at a 1.5:1 molar ratio of (obtained in situ—according to the method of patent specification PL 163688 or PL 214628) were applied in a foliar manner twice during the entire cultivation, the concentration of titanium in the working liquid for both formulations was 0.00085% Ti. In two applications, the total titanium dose per hectare was 3.4 g Ti/ha. The experiment was performed in a random block system, combinations were drawn in 4 blocks. There were 20 lettuce plants for each combination.
The experiment was performed analogously to the titanium complex at a 1:2 or 1.5:1 (Example 20) molar ratio of Ti:ascorbic acid. VO(C6H7O6)2.2H2O was used in the form of foliar spraying twice, vanadium concentration in the working liquid was 0.001% V. In two applications, the total micronutrient dose per hectare was 10 g V/ha.
Foliar application of VO(C6H7O6)2.2H2O increased the mass of the lettuce head by 14% compared to the control. Furthermore, vanadium ascorbate at a 1:2 molar ratio of V:Asc increased the chlorophyll content. Also, differences were found in the level of flavonoid accumulation between the control object and the combination treated with VO(C6H7O6)2.2H2O.

[4] = system: fusarium foot and root rot; test: Fusarium foot and root rot on wheat; format: in vivo; details: wheat of Figura type, initial studies, analogous to the titanium complex
[5] = Study of solution stability for a given complex; format: physicochemical; details: complexes in the form of solutions
[6] = system: diseases affecting the plant spikes; test: Vanadyl ascorbate on wheat of Figura type, diseases affecting the plant spikes; format: in vivo; details: initial studies, analogous to the titanium complex
From the text: In the case of diseases attacking spikes, on the control combination, infestation by Cladosporium herbarum at 20%, by Septoria nodorum at 10% and by Gibberella avenacea at 10% were found. On sprayed plants, infestations were 1%, 1% and 0% respectively.

## O.O.O=C1OC(C(O)CO)C([O-])=C1O.O=C1OC(C(O)CO)C([O-])=C1O.[O]=[V+2] (stereo not drawn) [VO(C6H7O6)2•2H2O, vanadyl ascorbate]
[1]; dose of 5 g V/ha
  root mass increase compared to plants from the control object: 23%
[1]; dose of 10 g V/ha
  root mass increase compared to plants from the control object: 11%
[1]; dose of 5 g V/ha (0.001%)
  Chlorophyll: 35.0 μg/cm^2
  Dry mass of leaves: 8.9%
  Dry mass of root: 2.9%
  Flavonoids: 0.77 μg/cm^2
  Mass of celery leaves: 320.3 g
  Mass of celery root: 90.7 g
[1]; dose of 10 g V/ha (0.002%)
  Chlorophyll: 32.0 μg/cm^2
  Dry mass of leaves: 9.5%
  Dry mass of root: 3.1%
  Flavonoids: 0.72 μg/cm^2
  Mass of celery leaves: 317.3 g
  Mass of celery root: 78.5 g
[2]
  Chlorophyll: 19.1 μg/cm^2
  Dry mass of root: 4.8%
  Flavonoids: 0.88 μg/cm^2
  Mass of radish root: 19.5 g
  increase of the content of flavonoids compared to the control: almost twice
  increase of the mass of radish root compared to the control plants: 12%
[3]; iceberg lettuce, 0.001% V
  Chlorophyll: 29.6 μg/cm^2
  Dry mass: 6.85%
  Flavonoids: 0.29 μg/cm^2
  Mass of lettuce head: 78.2 g
  increase of the mass of the lettuce head compared to the control: 14%
[3]; lettuce, g/kg d.c.
  Ca content: 18.17 g/kg
  K content: 21.84 g/kg
  Mg content: 4.92 g/kg
  P content: 3.42 g/kg
  S content: 2.69 g/kg
[4]
  effect on the elimination of symptoms caused by fusarium foot and root rot: positive effect
[5]
  stability of the solution among the complexes: most stable
[6]
  effect on the elimination of symptoms caused by diseases affecting the plant spikes: positive effect
